For this experiment, the system named is Streptococcus pyogenes (ATCC# 97-03 14289). As to the kind of experiment: Anti-microbial screen (growth inhibition, OD 570 nm). Format: cell-based. The settings on record: growth in Todd Hewitt Broth, plates read at 570 nm at 0 time and 4 hours, color corrected. As for the experimental part: Streptococcus pyogenes (ATCC# 97-03 14289) was grown in Todd Hewitt Broth (THB) (Difco Laboratories #0492-17-6) overnight until reaching an optical density of (OD=0.636 @ 570 nm) by reading 0.1 ml in a 96 well microtiter plate in a Molecular Devices Thermomax. This preparation was kept frozen as stocks in 30% v/v glycerol in 1.5 ml aliquots at −70^mC. until use. Prior to experiments, […] aliquots were thawed and diluted into 50 ml 2×THB. 60 ul of this dilution was added to 92 wells of microtiter plate. To three wells THB (200 ul) was added to serve as a blank and a sterility control. Test compounds in DMSO and appropriate concentrations of DMSO were added to Growth/Solvent Controls at 0 time. Plates were read at 0 time at 570 nm in the Molecular Devices plate reader to obtain compounds correction factors for insoluble or colored compounds. Plates were read again at 4 hours.
Percent inhibition is calculated with the following formulae: [drawing 4]
Color correct=O.D. 0 hr−Blank 0 hr)−(Solvent Control 0 hr−Blank 0 hr)
% Inhibition=100−O.D. test compound 4 hr−Blank 4 hr−color correct O.D. growth/solvent control 4 hr−Blank 4 hr
With `O=C(Nc1sc2c(c1C(=O)O)CCN(C(=O)c1ccc(C(F)(F)F)cc1)C2)c1ccc2ccccc2c1`, the % Inhibition (commonly the change of the read-out against control, counted positive when it falls) came to 63.29%.

As to `O=C(Nc1sc2c(c1C(=O)O)CCN(C(=O)c1ccsc1)C2)c1ccccc1Cl`, the “% Inhibition” value is 85.87%.

As for `COc1cc(Cl)ccc1C(=O)N1CCc2c(sc(NC(=O)c3ccccc3)c2C(=O)O)C1`, the “% Inhibition” value is recorded as 81.48%.

Regarding `CCCc1ccc(C(=O)Nc2sc3c(c2C(=O)O)CCN(C(=O)c2ccccc2SC)C3)cc1`, the “% Inhibition” value came out at 90.02%.

`CC(C)C(=O)N1CCc2c(sc(NC(=O)c3ccccc3)c2C(=O)O)C1`: the “% Inhibition” value is given as 90.8%.

Turning to `COc1ccccc1C(=O)Nc1sc2c(c1C(=O)O)CCN(C(=O)CCc1ccc(F)c(F)c1)C2`, the “% Inhibition” value is listed as 60.86%.

Take `Cc1ccc(C(=O)N2CCc3c(sc(NC(=O)c4ccc(Cl)cc4)c3C(=O)O)C2)c(C)c1`: the “% Inhibition” value amounted to 63.51%.

Regarding `CC(C)(C)c1ccc(C(=O)Nc2sc3c(c2C(=O)O)CCN(C(=O)CC2CCCC2)C3)cc1`, the “% Inhibition” value was found to be 79.23%.

Regarding `Cc1ccsc1C(=O)N1CCc2c(sc(NC(=O)c3ccccc3)c2C(=O)O)C1`, the “% Inhibition” value is listed as 93.13%.

Consider `O=C(Nc1sc2c(c1C(=O)O)CCN(C(=O)CCc1ccc(F)c(F)c1)C2)c1ccc(Cl)cc1`, for which the “% Inhibition” value is given as 82.59%.

Take `Cc1ccsc1C(=O)N1CCc2c(sc(NC(=O)c3ccc(Cl)cc3)c2C(=O)O)C1`: the “% Inhibition” value is 62.02%.

With `CCCSc1ncccc1C(=O)N1CCc2c(sc(NC(=O)c3cccc(OC)c3)c2C(=O)O)C1`, the “% Inhibition” value was 88.5%.

For `CC(C)CC(=O)N1CCc2c(sc(NC(=O)c3ccc4ccccc4c3)c2C(=O)O)C1`, the “% Inhibition” value turned out to be 77.94%.

Take `O=C(Nc1sc2c(c1C(=O)O)CCN(C(=O)c1ccc(C(F)(F)F)cc1)C2)c1c(F)cccc1F`: the “% Inhibition” value was determined as 59.67%.

Regarding `COc1cccc(C(=O)Nc2sc3c(c2C(=O)O)CCN(C(=O)c2ccc(Cl)cc2)C3)c1`, the “% Inhibition” value was found to be 90.32%.

Consider `O=C(Nc1sc2c(c1C(=O)O)CCN(C(=O)c1ccc(F)c(F)c1)C2)c1ccccc1Cl`, for which the “% Inhibition” value is on record as 61.26%.

Regarding `CCCc1ccc(C(=O)Nc2sc3c(c2C(=O)O)CCN(C(=O)C2CCC2)C3)cc1`, the “% Inhibition” value amounted to 95.65%.

Take `O=C(Nc1sc2c(c1C(=O)O)CCN(C(=O)c1ccccc1Cl)C2)c1ccc2ccccc2c1`: the “% Inhibition” value was found to be 63.6%.

On to `Cc1ccc(C(=O)N2CCc3c(sc(NC(=O)CC(C)CC(C)(C)C)c3C(=O)O)C2)c(C)c1` (centres unmarked), for which the “% Inhibition” value is 81.9%.

For `CCCc1ccc(C(=O)Nc2sc3c(c2C(=O)O)CCN(C(=O)C(C)C)C3)cc1`, the “% Inhibition” value is recorded as 74.78%.

As for `Cc1noc(C)c1C(=O)N1CCc2c(sc(NC(=O)c3ccccc3)c2C(=O)O)C1`, the “% Inhibition” value is 96.39%.

Regarding `CC(C)(C)c1ccc(C(=O)Nc2sc3c(c2C(=O)O)CCN(C(=O)C2CCC2)C3)cc1`, the “% Inhibition” value came to 98.89%.

For the compound `Cn1cc(C(=O)N2CCc3c(sc(NC(=O)c4ccccc4)c3C(=O)O)C2)c2ccccc21`, the “% Inhibition” value came to 87.54%.

Take `CCc1ccc(C(=O)Nc2sc3c(c2C(=O)O)CCN(C(=O)c2ccc(Cl)cc2)C3)cc1`: the “% Inhibition” value was 74.97%.

As to `CC(C)(C)c1ccc(C(=O)Nc2sc3c(c2C(=O)O)CCN(C(=O)c2ccc(F)c(F)c2)C3)cc1`, the “% Inhibition” value stood at 75.95%.

Consider `O=C(Nc1sc2c(c1C(=O)O)CCN(C(=O)C1CCC1)C2)c1ccccc1`, for which the “% Inhibition” value was determined as 89.4%.

For the compound `CC(C)(C)c1ccc(C(=O)Nc2sc3c(c2C(=O)O)CCN(C(=O)c2ccc(F)cc2F)C3)cc1`, the “% Inhibition” value is reported as 86.77%.

Take `CCC(=O)N1CCc2c(sc(NC(=O)C(CC)c3ccccc3)c2C(=O)O)C1` (centres unmarked): the “% Inhibition” value was found to be 60.7%.

As for `Cc1c(F)cccc1C(=O)N1CCc2c(sc(NC(=O)c3ccc(Cl)cc3)c2C(=O)O)C1`, the “% Inhibition” value is given as 78.42%.

`CC(CC(=O)Nc1sc2c(c1C(=O)O)CCN(C(=O)c1cccc3ccccc13)C2)CC(C)(C)C` (centres unmarked): the “% Inhibition” value stood at 68.89%.

With `CCCc1ccc(C(=O)Nc2sc3c(c2C(=O)O)CCN(C(=O)c2ccc(Cl)cc2OC)C3)cc1`, the “% Inhibition” value stood at 67.49%.

Regarding `O=C(Nc1sc2c(c1C(=O)O)CCN(C(=O)c1cccc3ccccc13)C2)c1ccccc1Cl`, the “% Inhibition” value amounted to 65.9%.

Take `COc1cccc(C(=O)N2CCc3c(sc(NC(=O)[C@]45C[C@H]6C[C@@H](C[C@H](C6)C4)C5)c3C(=O)O)C2)c1OC`: the “% Inhibition” value amounted to 68.91%.

In the case of `CCCc1ccc(C(=O)Nc2sc3c(c2C(=O)O)CCN(C(=O)c2ccc(C)cc2C)C3)cc1`, the “% Inhibition” value is 61.2%.

Regarding `O=C(CCC1CCCC1)Nc1sc2c(c1C(=O)O)CCN(C(=O)C1CCCCC1)C2`, the “% Inhibition” value was 65.37%.

On to `CSc1ncccc1C(=O)N1CCc2c(sc(NC(=O)c3ccco3)c2C(=O)O)C1`, for which the “% Inhibition” value is 62.35%.

Turning to `O=C(Nc1sc2c(c1C(=O)O)CCN(C(=O)c1cccc(Cl)c1)C2)c1ccccc1`, the “% Inhibition” value amounted to 94.99%.

In the case of `CCCc1ccc(C(=O)Nc2sc3c(c2C(=O)O)CCN(C(=O)c2cccc(F)c2C)C3)cc1`, the “% Inhibition” value was found to be 99.63%.

Regarding `O=C(Nc1sc2c(c1C(=O)O)CCN(C(=O)c1ccc(F)cc1F)C2)c1ccc2ccccc2c1`, the “% Inhibition” value came out at 66.41%.

Turning to `O=C(Nc1sc2c(c1C(=O)O)CCN(C(=O)c1ccc(F)cc1F)C2)c1ccccc1Cl`, the “% Inhibition” value was 64.7%.

`O=C(Nc1sc2c(c1C(=O)O)CCN(C(=O)c1ccccc1Cl)C2)c1ccco1`: the “% Inhibition” value came out at 60.48%.

For `Cc1ccc(C)c(CC(=O)N2CCc3c(sc(NC(=O)c4ccc5ccccc5c4)c3C(=O)O)C2)c1`, the “% Inhibition” value was 67.34%.

Turning to `CC(=O)Nc1ccc(C(=O)N2CCc3c(sc(NC(=O)c4ccccc4)c3C(=O)O)C2)cc1`, the “% Inhibition” value is on record as 90.8%.

For `CCOc1ncccc1C(=O)N1CCc2c(sc(NC(=O)c3ccc(Cl)cc3)c2C(=O)O)C1`, the “% Inhibition” value was 79.31%.

As for `CCC(=O)N1CCc2c(sc(NC(=O)c3ccc4ccccc4c3)c2C(=O)O)C1`, the “% Inhibition” value was found to be 62.98%.

In the case of `CC(C)(C)c1ccc(C(=O)Nc2sc3c(c2C(=O)O)CCN(C(=O)c2cccc4ccccc24)C3)cc1`, the “% Inhibition” value is 73%.

With `O=C(CCC1CCCC1)Nc1sc2c(c1C(=O)O)CCN(C(=O)c1ccc(F)c(F)c1)C2`, the “% Inhibition” value is reported as 61.45%.

For the compound `COc1ccc(OC)c(C(=O)N2CCc3c(sc(NC(=O)c4ccccc4)c3C(=O)O)C2)c1`, the “% Inhibition” value is recorded as 73.56%.

As for `COc1cccc2cc(C(=O)N3CCc4c(sc(NC(=O)c5ccccc5)c4C(=O)O)C3)oc12`, the “% Inhibition” value stood at 76.35%.

As to `CCc1ccc(C(=O)Nc2sc3c(c2C(=O)O)CCN(C(=O)c2ccccc2C(F)(F)F)C3)cc1`, the “% Inhibition” value is on record as 86.11%.

Take `CC(C)(C)c1ccc(C(=O)Nc2sc3c(c2C(=O)O)CCN(C(=O)c2ccc(Cl)cc2)C3)cc1`: the “% Inhibition” value is on record as 68.41%.

Turning to `O=C(Nc1sc2c(c1C(=O)O)CCN(C(=O)CC1CCCC1)C2)c1ccco1`, the “% Inhibition” value was found to be 65.78%.

`O=C(Nc1sc2c(c1C(=O)O)CCN(C(=O)c1ccoc1)C2)c1ccccc1`: the “% Inhibition” value is 94.53%.

Regarding `CC(C)CC(=O)N1CCc2c(sc(NC(=O)c3ccc(C(C)(C)C)cc3)c2C(=O)O)C1`, the “% Inhibition” value was found to be 64.48%.

As to `CCCc1ccc(C(=O)Nc2sc3c(c2C(=O)O)CCN(C(=O)CC2CCCC2)C3)cc1`, the “% Inhibition” value was determined as 61.53%.

For the compound `CCc1ccc(C(=O)Nc2sc3c(c2C(=O)O)CCN(C(=O)C2CCCCC2)C3)cc1`, the “% Inhibition” value stood at 63.5%.

Consider `COc1ccccc1C(=O)Nc1sc2c(c1C(=O)O)CCN(C(=O)Cc1cc(C)ccc1C)C2`, for which the “% Inhibition” value is 61.95%.

For `O=C(Nc1sc2c(c1C(=O)O)CCN(C(=O)c1ccc(Cl)cc1)C2)c1ccccc1`, the “% Inhibition” value is 87.07%.

For the compound `CCCCOc1ccc(C(=O)Nc2sc3c(c2C(=O)O)CCN(C(=O)CC)C3)cc1`, the “% Inhibition” value was determined as 65.64%.

In the case of `CCc1ccc(C(=O)Nc2sc3c(c2C(=O)O)CCN(C(=O)c2sccc2C)C3)cc1`, the “% Inhibition” value stood at 60.88%.

For the compound `COc1ccccc1C(=O)Nc1sc2c(c1C(=O)O)CCN(C(=O)c1cccc(F)c1C)C2`, the “% Inhibition” value is 63.41%.

Consider `COc1cccc(C(=O)N2CCc3c(sc(NC(=O)c4ccc5ccccc5c4)c3C(=O)O)C2)c1OC`, for which the “% Inhibition” value was determined as 64.54%.

Consider `CCCc1ccc(C(=O)Nc2sc3c(c2C(=O)O)CCN(C(=O)c2cccnc2OCC)C3)cc1`, for which the “% Inhibition” value was determined as 92.34%.

In the case of `CC(C)(C)c1ccc(C(=O)Nc2sc3c(c2C(=O)O)CCN(C(=O)c2ccc(C(F)(F)F)cc2)C3)cc1`, the “% Inhibition” value is reported as 59.57%.

Turning to `CC(=O)Nc1cccc(C(=O)N2CCc3c(sc(NC(=O)c4ccccc4)c3C(=O)O)C2)c1`, the “% Inhibition” value worked out at 96.85%.

For the compound `CCc1ccc(C(=O)Nc2sc3c(c2C(=O)O)CCN(C(=O)c2ccccc2SC)C3)cc1`, the “% Inhibition” value is 86.44%.

Consider `CCC(C(=O)Nc1sc2c(c1C(=O)O)CCN(C(=O)c1ccc(Cl)cc1)C2)c1ccccc1` (centres unmarked), for which the “% Inhibition” value was 72.87%.

For the compound `O=C(Nc1sc2c(c1C(=O)O)CCN(C(=O)C1CCC1)C2)c1ccc(Cl)cc1`, the “% Inhibition” value is reported as 67.98%.

For the compound `CC(=O)Nc1ccc(C(=O)N2CCc3c(sc(NC(=O)c4ccccc4Cl)c3C(=O)O)C2)cc1`, the “% Inhibition” value turned out to be 76.33%.

Regarding `O=C(O)c1c(NC(=O)C2CCCCC2)sc2c1CCN(C(=O)CCc1ccc(F)c(F)c1)C2`, the “% Inhibition” value came out at 66.79%.

For the compound `CC(C)CC(=O)N1CCc2c(sc(NC(=O)c3ccc(Cl)cc3)c2C(=O)O)C1`, the “% Inhibition” value was 84.68%.
